# Patent US20020058299A1, “Mycologic genera specific selective agar and method of manufacture” (priority 2000, published 2002)
# System: aggressive fungi
# Assay: Empirical trials of Minimum Inhibitory Concentration levels that suppress aggressive fungi without restricting Stachybotrys
# Format: cell-based
# Conditions: added to PDA base media
# Method: In order to be successful in culturing Stachybotrys from environmental samples, Aspergillus flavus, Aspergillus fumigatus, Aspergillus vervicolor, Cladosporium species, Penicillium species, in addition to other fungi and bacteria, need to be suppressed. While conceptually simple, the difficulty is to determine which base media, in combination with which one or more antibiotics, at what concentrations, incubated at what temperature regimes, for how long, would achieve inhibition of competitors—without restricting Stachybotrys. Extensive experimental trials empirically determined the Minimum Inhibitory Concentration (MIC) levels of various compounds that would effectively suppress aggressive fungi without restricting Stachybotrys development. Through this empirical effort there has been developed a proprietary formula for a selective agar (PDA+) based on commercially available base media and additional ingredients for the specific recovery of Stachybotrys chartarum.
# (2) Miconazole (antifungal compound added to base media at 1.6 micrograms (μg) per milliliter (ml) of PDA+, the optimum concentration within the functional range of 1.0 to 3.2 μg/ml).
structure (smiles),measurement,value
Clc1ccc(COC(Cn2ccnc2)c2ccc(Cl)cc2Cl)c(Cl)c1 (stereo not shown) [Miconazole],optimum concentration in PDA+,1.6 micrograms (μg) per milliliter (ml)
